Data as given in the supplement of paper PMC10307832.

Experiments:
Experiment in all cases: relative viability (nuclei count vs DMSO), 5 days (fraction); higher = more cells survive
[1] = compound: C1/C(=C\C2=CC=CS2)/C(=O)/C(=C/C3=CC=CS3)/C1 + CS(=O)(=O)N1CCN(Cc2cc3nc(-c4cccc5[nH]ncc45)nc(N4CCOCC4)c3s2)CC1 [Pictilisib] (partner 1 µM)
Outline: (§1)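 Lung cancer cell lines were seeded in 1536-well plates and dosed by pin tool the next day, with either a single drug or a fixed anchor-drug dose combined with five library-drug doses (not always all listed) spaced in √10 steps. Five days later, one step fixed the cells and stained their nuclei (final 0.05% Triton X-100, 1% formaldehyde, 1 ug/ml Hoechst), and nuclei were counted on 4× images. Relative viability is the nuclei count in treated wells divided by the count in vehicle wells, and each value is the median of duplicate plates.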

[2] = compound: C[C@]12O[C@H](C[C@]1(O)CO)n1c3ccccc3c3c4c(c5c6ccccc6n2c5c31)CNC4=O [Lestaurtinib] + CC1(C)CCC(c2ccc(Cl)cc2)=C(CN2CCN(c3ccc(C(=O)NS(=O)(=O)c4ccc(N[C@H](CCN5CCOCC5)CSc5ccccc5)c(S(=O)(=O)C(F)(F)F)c4)cc3)CC2)C1 [Navitoclax] (partner 0.5 µM)
Outline: as §1

[3] = compound: C[C@]12O[C@H](C[C@]1(O)CO)n1c3ccccc3c3c4c(c5c6ccccc6n2c5c31)CNC4=O [Lestaurtinib] + C[C@]1(O)C[C@@H](c2nc(-c3ccc4ccc(-c5ccccc5)nc4c3)c3c(N)nccn32)C1 [Linsitinib] (partner 1 µM)
Outline: as §1

TPCA-1 + Lapatinib = compound: C1=CC(=CC=C1C2=CC(=C(S2)NC(=O)N)C(=O)N)F [TPCA-1] + CS(=O)(=O)CCNCc1ccc(-c2ccc3ncnc(Nc4ccc(OCc5cccc(F)c5)c(Cl)c4)c3c2)o1 [Lapatinib] (partner 2 µM)
Outline: as §1

Row | Cell Line | relative viability ([1]; first compound 0.2 µM) | relative viability ([1]; first compound 0.6325 µM) | relative viability ([1]; first compound 2 µM) | relative viability ([1]; first compound 6.325 µM) | relative viability ([1]; first compound 20 µM) | relative viability ([2]; first compound 0.005 µM) | relative viability ([2]; first compound 0.01581 µM) | relative viability ([2]; first compound 0.05 µM) | relative viability ([2]; first compound 0.1581 µM) | relative viability ([2]; first compound 0.5 µM) | relative viability ([3]; first compound 0.005 µM) | relative viability ([3]; first compound 0.01581 µM) | relative viability ([3]; first compound 0.05 µM) | relative viability ([3]; first compound 0.1581 µM) | relative viability ([3]; first compound 0.5 µM) | relative viability (TPCA-1 + Lapatinib; first compound 0.04 µM) | relative viability (TPCA-1 + Lapatinib; first compound 0.1265 µM) | relative viability (TPCA-1 + Lapatinib; first compound 0.4 µM) | relative viability (TPCA-1 + Lapatinib; first compound 1.265 µM) | relative viability (TPCA-1 + Lapatinib; first compound 4 µM)
1 | LK-2 | 0.521 | 0.635 | 0.487 | 0.491 | 0.561 | 1.01 | 0.838 | 0.673 | 0.374 | 0.169 | 0.456 | 0.847 | 0.403 | 0.394 | 0.176 | 1.11 | 0.636 | 0.879 | 0.874 | 0.419
2 | IA-LM | 0.396 | 0.399 | 0.31 | 0.369 | 0.359 | 0.887 | 0.994 | 0.817 | 0.85 | 0.236 | 0.459 | 1.02 | 0.927 | 0.792 | 0.553 | 0.64 | 0.804 | 0.87 | 0.626 | 0.896
3 | NCI-H1703 | 0.278 | 0.247 | 0.259 | 0.227 | 0.248 | 1.22 | 1.09 | 0.424 | 0.219 | 0.11 | 0.513 | 0.508 | 0.562 | 0.164 | 0.149 | 1.07 | 0.902 | 1.18 | 0.805 | 0.988
